Experimental findings from article PMC5862592, “CDK8/19 inhibition induces premature G1/S transition and ATR-dependent cell death in prostate cancer cells” (Oncotarget, 2018) are described below.

Like-named read-outs stand apart in the source and are kept apart here.

What all share (assay): biochemical
What all share (design): KINOMEscan active site-directed competition binding assay (DiscoveRx), 456 kinases, per cent of control at 300 nM
Holding throughout (details): read-out: Percent of Control (%)

The target of one assay is PAK2 (Homo sapiens, UniProt Q13177). An outline of the steps: (§1)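 Each compound is tested at 300 nmol/L against a panel of 456 kinases. Interaction is quantified by competition for the kinase active site.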
Another assay addresses CLK1 (Homo sapiens, UniProt P49759). An outline of the steps: as §1
The target in the next assay is TNIK (Homo sapiens, UniProt Q9UKE5). In short, it runs like this:
as §1

The target in the next assay is T1, DCAMKL3 (Homo sapiens, UniProt Q9C098).
T1 construct: gene DCLK3
In short, it runs like this: as §1

A further assay concerns the target ULK3 (Homo sapiens, UniProt Q6PHR2). In short, it runs like this: as §1
The next assay concerns the target T2, QSK (Homo sapiens, UniProt Q9Y2K2).
T2 construct: gene SIK3
In short, it runs like this: as §1

In a further assay the target is T3, ERK2 (Homo sapiens, UniProt P28482).
T3 construct: gene MAPK1
T3 sequence (P28482 whole entry): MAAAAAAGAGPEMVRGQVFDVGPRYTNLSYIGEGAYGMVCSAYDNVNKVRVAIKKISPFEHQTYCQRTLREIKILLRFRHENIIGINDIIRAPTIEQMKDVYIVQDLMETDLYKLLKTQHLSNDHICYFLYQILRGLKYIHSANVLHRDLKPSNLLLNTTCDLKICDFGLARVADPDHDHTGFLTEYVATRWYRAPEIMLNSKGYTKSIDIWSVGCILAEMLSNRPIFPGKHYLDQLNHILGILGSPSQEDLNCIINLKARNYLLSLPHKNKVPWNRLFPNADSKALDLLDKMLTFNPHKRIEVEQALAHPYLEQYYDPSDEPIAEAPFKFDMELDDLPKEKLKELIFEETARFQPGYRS
An outline of the steps:
as §1

The target in another assay is FLT3(D835Y) (Homo sapiens, UniProt P36888, D835Y). An outline of the steps:
as §1

The target in assay [1] is T4, RPS6KA5(Kin.Dom.2-C-terminal) (Homo sapiens, UniProt O75582).
T4 construct: Kin.Dom.2-C-terminal
In short, it runs like this: as §1

The target in the next assay is MAP3K3 (Homo sapiens, UniProt Q99759). In short, it runs like this:
as §1

A further assay deals with PIK3C2B (Homo sapiens, UniProt O00750). In short, it runs like this: as §1
The target of a further assay is PIK3CA(E545A) (Homo sapiens, UniProt P42336, E545A). An outline of the steps:
as §1

For a further assay, the target named is LYN (Homo sapiens, UniProt P07948). An outline of the steps:
as §1

The target of a further assay is CAMK2A (Homo sapiens, UniProt Q9UQM7). In short, it runs like this:
as §1

The next assay addresses STK16 (Homo sapiens, UniProt O75716). In short, it runs like this: as §1
The target of another assay is T5, PKAC-alpha (Homo sapiens, UniProt P17612).
T5 construct: gene PRKACA
In short, it runs like this:
as §1

For the next assay, the target named is TYRO3 (Homo sapiens, UniProt Q06418). In short, it runs like this:
as §1

The target of a further assay is AURKA (Homo sapiens, UniProt O14965). An outline of the steps: as §1
In the next assay the target is PAK6 (Homo sapiens, UniProt Q9NQU5). In short, it runs like this: as §1
The next assay concerns the target INSRR (Homo sapiens, UniProt P14616). In short, it runs like this:
as §1

Another assay concerns the target EGFR(L858R) (Homo sapiens, UniProt P00533, L858R). In short, it runs like this: as §1
The target of the next assay is T6, CDK4-cyclinD3 (Homo sapiens, UniProt P11802).
T6 construct: cyclinD3
An outline of the steps:
as §1

MAP3K3, sequence (Q99759 whole entry): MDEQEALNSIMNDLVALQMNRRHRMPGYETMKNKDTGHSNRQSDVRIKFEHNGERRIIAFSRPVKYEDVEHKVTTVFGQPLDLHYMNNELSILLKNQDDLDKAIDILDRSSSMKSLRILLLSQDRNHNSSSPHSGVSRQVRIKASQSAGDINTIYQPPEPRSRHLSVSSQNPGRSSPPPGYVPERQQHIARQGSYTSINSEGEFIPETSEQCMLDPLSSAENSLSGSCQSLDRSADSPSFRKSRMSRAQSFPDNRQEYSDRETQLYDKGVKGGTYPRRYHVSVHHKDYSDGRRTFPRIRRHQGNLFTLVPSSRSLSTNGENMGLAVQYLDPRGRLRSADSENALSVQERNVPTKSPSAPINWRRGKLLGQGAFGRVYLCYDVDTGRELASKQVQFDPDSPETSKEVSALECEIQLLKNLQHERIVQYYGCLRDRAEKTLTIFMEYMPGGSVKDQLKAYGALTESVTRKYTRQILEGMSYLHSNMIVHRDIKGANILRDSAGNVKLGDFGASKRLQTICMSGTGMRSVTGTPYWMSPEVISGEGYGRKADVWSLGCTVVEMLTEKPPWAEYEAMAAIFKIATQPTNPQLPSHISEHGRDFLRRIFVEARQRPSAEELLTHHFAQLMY
STK16, sequence (O75716 whole entry): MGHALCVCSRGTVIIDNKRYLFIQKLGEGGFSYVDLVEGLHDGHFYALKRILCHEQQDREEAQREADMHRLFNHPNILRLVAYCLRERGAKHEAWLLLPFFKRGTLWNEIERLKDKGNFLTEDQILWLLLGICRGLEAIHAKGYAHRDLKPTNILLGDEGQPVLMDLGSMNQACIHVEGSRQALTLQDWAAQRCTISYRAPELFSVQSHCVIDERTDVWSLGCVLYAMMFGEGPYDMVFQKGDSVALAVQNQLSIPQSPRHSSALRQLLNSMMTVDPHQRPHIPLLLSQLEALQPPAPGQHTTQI
ULK3, sequence (Q6PHR2 whole entry): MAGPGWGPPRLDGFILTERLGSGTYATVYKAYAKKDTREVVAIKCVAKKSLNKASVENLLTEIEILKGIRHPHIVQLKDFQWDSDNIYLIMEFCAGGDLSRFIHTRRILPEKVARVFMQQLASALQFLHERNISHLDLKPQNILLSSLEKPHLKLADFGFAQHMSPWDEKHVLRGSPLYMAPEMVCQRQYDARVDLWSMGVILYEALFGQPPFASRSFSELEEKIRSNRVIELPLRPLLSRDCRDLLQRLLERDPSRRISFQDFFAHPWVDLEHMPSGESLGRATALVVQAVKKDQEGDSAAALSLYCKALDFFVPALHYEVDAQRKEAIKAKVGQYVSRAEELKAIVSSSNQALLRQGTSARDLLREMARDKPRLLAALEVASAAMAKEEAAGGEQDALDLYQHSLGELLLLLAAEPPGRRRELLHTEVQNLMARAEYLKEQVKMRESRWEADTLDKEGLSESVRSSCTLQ
TNIK, sequence (Q9UKE5 whole entry): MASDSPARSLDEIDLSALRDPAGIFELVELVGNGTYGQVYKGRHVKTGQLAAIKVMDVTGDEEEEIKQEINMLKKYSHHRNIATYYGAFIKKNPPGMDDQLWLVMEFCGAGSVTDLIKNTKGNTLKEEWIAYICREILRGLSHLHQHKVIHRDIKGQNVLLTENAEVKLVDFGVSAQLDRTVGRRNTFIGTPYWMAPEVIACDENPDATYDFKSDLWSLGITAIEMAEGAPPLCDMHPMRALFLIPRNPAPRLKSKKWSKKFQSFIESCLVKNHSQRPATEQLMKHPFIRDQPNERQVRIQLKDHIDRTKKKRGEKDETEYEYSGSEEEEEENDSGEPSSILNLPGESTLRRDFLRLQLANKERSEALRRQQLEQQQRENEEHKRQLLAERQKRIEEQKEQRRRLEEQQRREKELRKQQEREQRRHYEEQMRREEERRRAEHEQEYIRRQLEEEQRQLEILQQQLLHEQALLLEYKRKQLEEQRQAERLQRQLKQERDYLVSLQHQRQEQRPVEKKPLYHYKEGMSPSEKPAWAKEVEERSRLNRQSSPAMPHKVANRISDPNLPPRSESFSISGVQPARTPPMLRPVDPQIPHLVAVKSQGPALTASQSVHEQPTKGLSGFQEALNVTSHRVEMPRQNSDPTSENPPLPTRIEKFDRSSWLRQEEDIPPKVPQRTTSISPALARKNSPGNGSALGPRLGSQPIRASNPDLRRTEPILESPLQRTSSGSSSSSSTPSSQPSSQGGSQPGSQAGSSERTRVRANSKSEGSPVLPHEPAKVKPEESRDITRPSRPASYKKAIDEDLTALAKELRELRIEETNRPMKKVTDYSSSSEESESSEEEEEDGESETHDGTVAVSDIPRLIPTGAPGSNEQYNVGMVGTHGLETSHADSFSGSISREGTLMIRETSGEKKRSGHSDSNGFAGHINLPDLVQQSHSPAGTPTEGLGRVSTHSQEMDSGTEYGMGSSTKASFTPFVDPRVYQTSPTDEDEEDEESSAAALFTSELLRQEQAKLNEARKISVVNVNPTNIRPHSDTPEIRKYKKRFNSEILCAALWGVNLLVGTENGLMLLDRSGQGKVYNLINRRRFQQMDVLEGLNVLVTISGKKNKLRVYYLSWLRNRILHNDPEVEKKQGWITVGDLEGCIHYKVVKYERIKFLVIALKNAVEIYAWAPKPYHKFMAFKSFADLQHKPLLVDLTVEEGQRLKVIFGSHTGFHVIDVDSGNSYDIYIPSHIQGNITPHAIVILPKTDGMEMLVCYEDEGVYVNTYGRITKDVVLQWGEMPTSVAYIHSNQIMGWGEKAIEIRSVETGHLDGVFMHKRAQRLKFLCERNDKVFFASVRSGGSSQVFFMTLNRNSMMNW
PIK3CA(E545A), sequence (P42336 whole entry E545A): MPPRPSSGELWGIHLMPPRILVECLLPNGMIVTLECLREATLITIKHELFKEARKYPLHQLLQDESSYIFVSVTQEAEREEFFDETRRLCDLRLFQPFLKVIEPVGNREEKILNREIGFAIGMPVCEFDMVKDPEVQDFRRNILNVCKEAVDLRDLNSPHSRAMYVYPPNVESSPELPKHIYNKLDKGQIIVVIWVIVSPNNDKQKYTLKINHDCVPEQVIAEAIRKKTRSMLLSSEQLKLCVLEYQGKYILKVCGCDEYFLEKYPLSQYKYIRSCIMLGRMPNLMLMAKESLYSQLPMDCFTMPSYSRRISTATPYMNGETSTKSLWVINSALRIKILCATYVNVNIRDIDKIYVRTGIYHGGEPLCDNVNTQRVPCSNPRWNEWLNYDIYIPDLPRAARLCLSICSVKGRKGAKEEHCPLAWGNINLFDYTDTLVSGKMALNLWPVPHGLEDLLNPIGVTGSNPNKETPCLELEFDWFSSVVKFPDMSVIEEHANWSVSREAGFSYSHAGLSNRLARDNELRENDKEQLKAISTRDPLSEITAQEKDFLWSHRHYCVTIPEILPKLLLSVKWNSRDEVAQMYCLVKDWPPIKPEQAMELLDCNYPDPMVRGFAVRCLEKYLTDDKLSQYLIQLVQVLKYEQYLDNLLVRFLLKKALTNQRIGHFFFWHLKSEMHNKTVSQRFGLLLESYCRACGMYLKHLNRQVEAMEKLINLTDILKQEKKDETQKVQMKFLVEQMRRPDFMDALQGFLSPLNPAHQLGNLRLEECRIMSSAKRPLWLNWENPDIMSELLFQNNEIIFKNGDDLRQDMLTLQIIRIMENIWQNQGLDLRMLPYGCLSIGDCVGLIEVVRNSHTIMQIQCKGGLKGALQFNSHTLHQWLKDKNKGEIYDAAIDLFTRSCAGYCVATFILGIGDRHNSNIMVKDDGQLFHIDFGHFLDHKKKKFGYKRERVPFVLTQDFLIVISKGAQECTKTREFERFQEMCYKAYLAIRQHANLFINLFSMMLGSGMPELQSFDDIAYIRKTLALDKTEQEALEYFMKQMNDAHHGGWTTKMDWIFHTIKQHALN
CLK1, sequence (P49759 whole entry): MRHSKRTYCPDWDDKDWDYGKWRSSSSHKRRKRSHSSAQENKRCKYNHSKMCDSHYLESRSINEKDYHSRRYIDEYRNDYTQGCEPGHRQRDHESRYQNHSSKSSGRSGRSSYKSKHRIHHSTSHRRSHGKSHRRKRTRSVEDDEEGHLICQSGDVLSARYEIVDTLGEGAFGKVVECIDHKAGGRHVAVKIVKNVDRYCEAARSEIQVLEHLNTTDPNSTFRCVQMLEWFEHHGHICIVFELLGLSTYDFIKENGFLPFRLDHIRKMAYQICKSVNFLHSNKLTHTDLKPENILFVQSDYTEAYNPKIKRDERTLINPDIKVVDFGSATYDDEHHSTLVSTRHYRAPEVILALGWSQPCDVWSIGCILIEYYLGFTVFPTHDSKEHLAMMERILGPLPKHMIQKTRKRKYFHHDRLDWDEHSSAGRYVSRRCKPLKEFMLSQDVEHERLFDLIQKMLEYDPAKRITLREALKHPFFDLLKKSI

With `O=C(/C=C/c1cnccc1-c1ccc(F)cc1)Nc1ccc(CCc2nnco2)cc1` [T-418, (2E)-3-(4-(4-fluorophenyl)pyridin-3-yl)-N-(4-(2-(1,3,4-oxadiazol-2-yl)ethyl)phenyl)acrylamide], the remaining binding at 0.3 µM was found to be 70% on PAK2 (sheet T-418); 100% at CLK1 (sheet T-418); 100% on TNIK (sheet T-418); 83% on DCAMKL3 (sheet T-418); 20% at ULK3 (sheet T-418); 95% at QSK (sheet T-418). Moreover, the remaining binding at 0.3 µM on ERK2 (sheet T-418) stood at 79%; on FLT3(D835Y) (sheet T-418) it was 100%; in [1] (sheet T-418), 100%; on MAP3K3 (sheet T-418), 94%; at PIK3C2B (sheet T-418), 88%; on PIK3CA(E545A) (sheet T-418), 78%. Further, the remaining binding at 0.3 µM at LYN (sheet T-418) came to 100%; on CAMK2A (sheet T-418), 96%; on STK16 (sheet T-418), 86%; on PKAC-alpha (sheet T-418), 66%; on TYRO3 (sheet T-418) it was 82%; on AURKA (sheet T-418) it was 100%. Also, the remaining binding at 0.3 µM at PAK6 (sheet T-418) came to 85%; on INSRR (sheet T-418), 100%; on EGFR(L858R) (sheet T-418), 66%; on CDK4-cyclinD3 (sheet T-418), 95%.
For `Cc1ncccc1Oc1sc(C(N)=O)c2c1-c1c(cnn1C)CC2` [T-474, 1-methyl-8-((2-methylpyridin-3-yl)oxy)-4,5-dihydro-1H-thieno[3,4-g]indazole-6-carboxamide], the remaining binding at 0.3 µM on PAK2 amounted to 88%; at CLK1, 32%; on TNIK, 100%; on DCAMKL3, 76%; on ULK3, 20%; on QSK, 93%. Also, the remaining binding at 0.3 µM at ERK2 is 85%; on FLT3(D835Y), 60%; in assay [1], 100%; on MAP3K3, 100%; on PIK3C2B it was 86%; on PIK3CA(E545A), 69%. Moreover, the remaining binding at 0.3 µM came to 100% at LYN; 97% on CAMK2A; 88% at STK16; 90% at PKAC-alpha; 95% at TYRO3; 100% at AURKA. Also, the remaining binding at 0.3 µM on PAK6 worked out at 89%; at INSRR, 100%; at EGFR(L858R), 71%; on CDK4-cyclinD3, 98%.
